Laboratory results from patent publication US20260274836A1, “NOVEL HEPATOSELECTIVE POLYADENYLATING POLYMERASES INHIBITORS AND THEIR METHOD OF USE” (Baruch S. Blumberg Institute, priority 2022, published 2026).
Like-named read-outs stand apart in the source and are kept apart here.

What was measured:
OATP1B1 = biological target: T1, OATP1B1 (Homo sapiens, UniProt Q9Y6L6); assay: OATP1B1 transporter substrate uptake in OATP1B1-HEK293 cells; format: in vitro ADME; conditions: for Uptake Ratio (−/+Inhibitor): OATP1B1-HEK293 cells, inhibitor Rifamycin SV
T1 construct: expressed in transfected cells; host or cells: HEK293
T1 sequence (Q9Y6L6 1-691): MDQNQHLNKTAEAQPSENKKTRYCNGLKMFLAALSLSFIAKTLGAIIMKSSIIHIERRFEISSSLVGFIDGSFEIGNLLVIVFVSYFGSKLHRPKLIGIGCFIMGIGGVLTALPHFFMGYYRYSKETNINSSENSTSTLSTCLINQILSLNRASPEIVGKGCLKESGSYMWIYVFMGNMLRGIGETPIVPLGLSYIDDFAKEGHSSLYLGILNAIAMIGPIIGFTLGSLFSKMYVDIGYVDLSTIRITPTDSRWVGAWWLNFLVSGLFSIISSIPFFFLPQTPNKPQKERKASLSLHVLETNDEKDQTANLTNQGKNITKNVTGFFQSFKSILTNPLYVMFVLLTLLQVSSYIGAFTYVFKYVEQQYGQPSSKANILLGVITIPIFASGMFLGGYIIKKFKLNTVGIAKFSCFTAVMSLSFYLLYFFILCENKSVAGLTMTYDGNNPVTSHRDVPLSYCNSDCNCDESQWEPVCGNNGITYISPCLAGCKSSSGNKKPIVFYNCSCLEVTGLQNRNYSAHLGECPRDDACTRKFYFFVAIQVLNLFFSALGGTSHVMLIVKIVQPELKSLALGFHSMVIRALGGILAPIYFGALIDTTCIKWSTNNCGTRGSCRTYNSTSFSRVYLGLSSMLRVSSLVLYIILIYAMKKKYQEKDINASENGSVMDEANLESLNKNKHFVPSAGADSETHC
Procedure: (§1) Protocol for identification of compounds that are substrates of transporters OATPIBI and OATPIB3. Transfected HEK293 and vector control HEK293 cells were cultured in 24-well poly-D-lysine or collagen-coated tissue culture plates ([…]) for 2 and 10 minutes respectively in transport buffer (HBSSg, pH 7.4, pre-warmed to 37° C.). At a defined time point, the uptake experiments were stopped by removing dosing solution followed by two washes of ice-cold HBSSg buffer. The cells were lysed for 2 minutes with 75% ACN containing an appropriate internal standard (when available). Lysis buffer were chilled to −20° C., and the plate was kept on ice during lysis. The cell lysate was transferred into a 96-well plate for sample analysis with LC-MS/MS analysis to determine concentration of test compound in cell lysate. The uptake of test compounds was normalized by total cell protein using the BCA Protein Assay Kit following the manufacturer's protocol. The inhibitor Rifamycin SV was used to block OATP1B1 and OATP1B3 transporter activity in order to determine uptake ratios.

[1] = biological target: interaction of PAPD5 with ZCCHC14 (Homo sapiens, UniProt Q8NDF8); assay: Interaction of PAPD5 with ZCCHC14
Sequence of interaction of PAPD5 with ZCCHC14 (Q8NDF8 whole entry): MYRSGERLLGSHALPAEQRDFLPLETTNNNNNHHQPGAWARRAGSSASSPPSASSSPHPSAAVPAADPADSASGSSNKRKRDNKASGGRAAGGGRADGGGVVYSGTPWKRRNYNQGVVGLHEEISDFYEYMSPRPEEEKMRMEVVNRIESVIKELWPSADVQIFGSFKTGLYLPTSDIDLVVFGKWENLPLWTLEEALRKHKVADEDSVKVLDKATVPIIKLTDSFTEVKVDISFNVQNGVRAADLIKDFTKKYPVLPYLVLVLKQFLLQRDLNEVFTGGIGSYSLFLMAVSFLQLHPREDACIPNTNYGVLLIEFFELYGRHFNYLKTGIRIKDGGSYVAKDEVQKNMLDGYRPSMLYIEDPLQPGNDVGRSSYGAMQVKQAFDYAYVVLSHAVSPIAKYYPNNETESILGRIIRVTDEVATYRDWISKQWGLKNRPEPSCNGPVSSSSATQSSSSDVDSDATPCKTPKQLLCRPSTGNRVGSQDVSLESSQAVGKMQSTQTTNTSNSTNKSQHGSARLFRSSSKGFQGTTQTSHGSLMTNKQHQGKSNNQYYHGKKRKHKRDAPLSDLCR

OATP1B3 = biological target: T2, OATP1B3 (Homo sapiens, UniProt Q9NPD5); assay: OATP1B3 transporter substrate uptake in OATP1B3-HEK293 cells; format: in vitro ADME; conditions: for Uptake Ratio (−/+Inhibitor): OATP1B3-HEK293 cells, inhibitor Rifamycin SV
T2 construct: expressed in transfected cells; host or cells: HEK293
T2 sequence (Q9NPD5 1-702): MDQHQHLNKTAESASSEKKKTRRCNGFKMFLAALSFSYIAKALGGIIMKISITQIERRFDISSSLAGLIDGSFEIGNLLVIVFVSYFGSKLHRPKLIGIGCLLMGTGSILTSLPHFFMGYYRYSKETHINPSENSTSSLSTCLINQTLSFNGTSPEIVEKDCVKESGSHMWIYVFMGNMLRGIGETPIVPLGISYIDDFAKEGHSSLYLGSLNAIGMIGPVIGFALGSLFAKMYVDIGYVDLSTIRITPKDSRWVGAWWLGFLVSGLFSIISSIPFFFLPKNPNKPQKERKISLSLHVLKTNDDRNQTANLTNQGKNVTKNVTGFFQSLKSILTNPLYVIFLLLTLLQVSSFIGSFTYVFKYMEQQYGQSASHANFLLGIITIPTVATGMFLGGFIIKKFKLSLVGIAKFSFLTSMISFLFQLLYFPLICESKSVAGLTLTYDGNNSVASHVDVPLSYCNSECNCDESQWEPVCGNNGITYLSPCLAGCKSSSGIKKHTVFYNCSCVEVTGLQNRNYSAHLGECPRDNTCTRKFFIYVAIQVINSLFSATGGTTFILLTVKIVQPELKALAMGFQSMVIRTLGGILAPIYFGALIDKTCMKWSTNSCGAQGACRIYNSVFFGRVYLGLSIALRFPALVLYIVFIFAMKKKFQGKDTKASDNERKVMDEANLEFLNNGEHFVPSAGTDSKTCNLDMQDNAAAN
Procedure: as §1

HAV [2] = conditions: Ifnar1^−/− mice, cited from earlier work
HAV [3] = conditions: cited from earlier work
in vitro = format: cell-based; conditions: human
Procedure: Assays for the anti-HAV activity of the hepatoselective DHQ compounds were carried out in Huh-7 human hepatoma cells using the 18f-NLuc reporter virus, which expresses nanoluciferase (NLuc) from sequence inserted into the polyprotein coding region of the HM175/18f HAV genome between the VP1pX and 2B coding sequences (Yamane et al., 2019). The method was modified minimally from that described by Misumi et al. for iminosugar compounds (Misumi et al., 2021). Cells (approximately […]) were plated in wells of a 96-well plate with Dulbecco's modified Eagle medium (DMEM) and 10% fetal bovine serum. The cells were inoculated 24 hrs later with 18f-NLuc virus (approximately 10^6-10^7 genome equivalents) in medium containing increasing concentrations of the compounds of interest. […] Luminescence was measured using a Biotek Synergy II multi-mode plate reader (BioTek Instruments). […] Cell toxicity of the compounds was assessed using the WST-1 Cell Proliferation Reagent (Sigma-Aldrich) at the end of the treatment period in parallel cultures of uninfected cells, with WST-1 reagent added to cultures for 1 hr prior to harvest and O.D. reading.
Additional exemplary compounds of the present invention are evaluated for anti-HAV activity in accordance with certain assays described hereinabove. […] Luminescence was measured using a Biotek Synergy II multi-mode plate reader (BioTek Instruments). […]

[4] = tested on: 18f-NLuc reporter virus (HM175/18f HAV); assay: Antiviral activity against human hepatitis A virus, 18f-NLuc reporter virus in Huh-7 cells; format: cell-based, Human Hepatitis A Virus (Hepatovirus A)
Procedure: Assay for Antiviral Activity Against Human Hepatitis A Virus (Hepatovirus A).
(§2) Assays for the anti-HAV activity of the hepatoselective DHQ compounds were carried out in Huh-7 human hepatoma cells using the 18f-NLuc reporter virus, which expresses nanoluciferase (NLuc) from sequence inserted into the polyprotein coding region of the HM175/18f HAV genome between the VP1pX and 2B coding sequences (Yamane et al., 2019). The method was modified minimally from that described by Misumi et al. for iminosugar compounds (Misumi et al., 2021). Cells (approximately […]) were plated in wells of a 96-well plate with Dulbecco's modified Eagle medium (DMEM) and 10% fetal bovine serum. The cells were inoculated 24 hrs later with 18f-NLuc virus (approximately 10^6-10^7 genome equivalents) in medium containing increasing concentrations of the compounds of interest. The cells were re-incubated for 48 hrs at 37° C. in a 5% CO2 environment, then lysed in 1× passive lysis buffer (Promega) for 15 min at room temperature. Cell lysates were transferred to an opaque white 96-well plate (Corning, 3912) and NLuc assay carried out using the NLuc GLOW Assay kit (Nanolight Technology). Luminescence was measured using a Biotek Synergy II multi-mode plate reader (BioTek Instruments). The percent inhibition of replication was calculated by determining the reduction in NLuc activity from that expressed by infected cells incubated in parallel in the absence of compound, and 50% inhibitory endpoints estimated by fitting the data to a four parameter variable slope logistic curve using Prism 9 for Mac OS software (GraphPad). Cell toxicity of the compounds was assessed using the WST-1 Cell Proliferation Reagent (Sigma-Aldrich) at the end of the treatment period in parallel cultures of uninfected cells, with WST-1 reagent added to cultures for 1 hr prior to harvest and O.D. reading.
as §2, with “Additional exemplary compounds of the present invention are evaluated for anti-HAV activity in accordance with certain assays described hereinabove. As discussed above, assays” for “Assays”, “10^6-107” for “10^6-10^7”

[5] = read-out: EC50 HAV, Huh-7 cells, 18f-NLuc virus, 48 hrs
[6] = Hepatovirus A, Huh-7, 48 h, read-out: EC50 HAV (nM), Huh-7 cells, 18f-NLuc virus, 48 hrs

With `COCCCOc1cc2c(cc1OC)-c1cc(=O)c(C(=O)O)cn1[C@H](C(C)C)C2` [DHQ-1] the “Uptake Ratio (−/+Inhibitor)” value (OATP1B1; test concentration 1 μM) was 0.38, the “Uptake Ratio (Transporter(−Inhibitor)/Mock(−Inhibitor))” value (OATP1B1; OATP1B1-HEK293 vs mock HEK293, test concentration 1 μM) was 0.71 and the “Interaction of PAPD5 with ZCCHC14” value [1] was “prevents the interaction of PAPD5 with ZCCHC14”. For the same compound, the “Uptake Ratio (−/+Inhibitor)” value (OATP1B3; test concentration 1 μM) was 0.42, the “Uptake Ratio (Transporter(−Inhibitor)/Mock(−Inhibitor))” value (OATP1B3; OATP1B3-HEK293 vs mock HEK293, test concentration 1 μM) was 0.56 and the Prevention of infection (HAV [2]; given shortly after intravenous virus challenge) was “completely prevented infection”. For the same compound, the “HAV replication in mice” value (HAV [2]; oral treatment) was “blocked HAV replication” and the “HAV replication in cultured cells” value (HAV [3]) was “inhibit HAV replication”.
For `C[C@]12CC[C@@H]3c4ccc(O)cc4CC[C@H]3[C@@H]1CC[C@@H]2O[C@@H]1O[C@H](C(=O)O)[C@@H](O)[C@H](O)[C@H]1O` [Estradiol 17-β Glucuronide], the “Uptake Ratio (−/+Inhibitor)” value (OATP1B1; test concentration 10 μM) was 81.84, the “Uptake Ratio (Transporter(−Inhibitor)/Mock(−Inhibitor))” value (OATP1B1; OATP1B1-HEK293 vs mock HEK293, test concentration 10 μM) was 48.70 and the “Uptake Ratio (−/+Inhibitor)” value (OATP1B3; test concentration 10 μM) was 86.15. For the same compound, the “Uptake Ratio (Transporter(−Inhibitor)/Mock(−Inhibitor))” value (OATP1B3; OATP1B3-HEK293 vs mock HEK293, test concentration 10 μM) was 98.86.
For `COc1cc2c(cc1OCCCCCCCCC(=O)O)C[C@@H](C(C)C)n1cc(C(=O)O)c(=O)cc1-2` [Example 8, (S)-9-((8-carboxyoctyl)oxy)-6-isopropyl-10-methoxy-2-oxo-6,7-dihydro-2H-pyrido[2,1-a]isoquinoline-3-carboxylic acid], the CC50 at 48 h (in vitro) was over 10000 nM and the EC50 ([4]; Hepatovirus A, Huh-7, 48 h, Huh-7 cells, 18f-NLuc virus, 48 hrs) was 18.2 nM.
`COc1cc2c(cc1OCCCCCCCCC(=O)O)C[C@@H](C(C)C)n1cc(C(=O)O)c(=O)cc1-2` [Example A] gave an EC50 [4, 5] of 67 nM.
In the case of `COc1cc2c(cc1OCCCCCCCCC(=O)O)C[C@@H](C(C)C)n1cc(C(=O)O)c(=O)cc1-2` [Example B], the EC50 [4, 5] is reported as 63 nM.
Work on `COc1cc2c(cc1OCCc1cccc(C(=O)O)c1)C[C@@H](C(C)C)n1cc(C(=O)O)c(=O)cc1-2` [Example C] yielded an EC50 [4, 6] of 325 nM.
With `COc1cc2c(cc1OCCc1ccc(C(=O)O)cc1)C[C@@H](C(C)C)n1cc(C(=O)O)c(=O)cc1-2` [Example D] the EC50 [4, 6] was 245 nM.
For `COc1cc2c(cc1OCCCc1ccc(C(=O)O)cc1)C[C@@H](C(C)C)n1cc(C(=O)O)c(=O)cc1-2` [Example E], the EC50 [4, 6] was 382 nM.
Work on `COc1cc2c(cc1OCCCCCC(C)(C)C(=O)O)C[C@@H](C(C)C)n1cc(C(=O)O)c(=O)cc1-2` [Example F] yielded an EC50 [4, 6] of 25 nM.
For `COc1cc2c(cc1OCCCCCCC(=O)O)C[C@@H](C(C)C)n1cc(C(=O)O)c(=O)cc1-2` [Example G], the EC50 [4, 6] was 278 nM.
For `COc1cc2c(cc1OCCCCCCCCC(=O)O)C[C@@H](C(C)C)n1cc(C(=O)O)c(=O)cc1-2` [Example H], the EC50 [4, 5] was 18.2 nM.
